From paper PMC8282492 (Journal of Ginseng Research, 2020)

T1: human 14-3-3 ζ (Homo sapiens, UniProt P63104)
T1 sequence (P63104 1-245): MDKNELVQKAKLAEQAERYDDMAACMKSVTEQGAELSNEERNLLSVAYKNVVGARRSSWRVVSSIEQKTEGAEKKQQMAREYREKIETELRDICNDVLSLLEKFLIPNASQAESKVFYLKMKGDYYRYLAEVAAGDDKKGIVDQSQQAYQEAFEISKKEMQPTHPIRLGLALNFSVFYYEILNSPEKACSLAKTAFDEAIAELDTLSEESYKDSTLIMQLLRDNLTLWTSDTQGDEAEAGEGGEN

T2: 14-3-3 ζ protein (human), P63104
T2 chain: T1 sequence (P63104 1-245)

B1: 14-3-3 ζ protein, P63104 1-245 (natural protein)
chain: T1 sequence (P63104 1-245)

Each molecule was assayed against T1, human 14-3-3 ζ (assay: BLI direct binding response of ginsenosides to immobilised 14-3-3 ζ). Conditions: compound concentration 271μM; Fig. 3A and B.

direct binding response to 14-3-3 ζ (BLI)	Molecule
significant affinity	CC(C)=CCC[C@](C)(O)[C@H]1CC[C@]2(C)[C@@H]1[C@H](O)C[C@@H]1[C@@]3(C)CC[C@H](O)C(C)(C)[C@@H]3[C@@H](O)C[C@]12C [PPT, 20(S)-protopanaxatriol]
barely interacted	CC(C)=CCC[C@](C)(O[C@@H]1O[C@H](CO)[C@@H](O)[C@H](O)[C@H]1O)[C@H]1CC[C@]2(C)[C@@H]1[C@H](O)C[C@@H]1[C@@]3(C)CC[C@H](O)C(C)(C)[C@@H]3[C@@H](O)C[C@]12C [F1]
significant affinity	CC(C)=CCC[C@](C)(O[C@@H]1O[C@H](CO)[C@@H](O)[C@H](O)[C@H]1O)[C@H]1CC[C@]2(C)[C@@H]1[C@H](O)C[C@@H]1[C@@]3(C)CC[C@H](O)C(C)(C)[C@@H]3[C@@H](O[C@@H]3O[C@H](CO)[C@@H](O)[C@H](O)[C@H]3O)C[C@]12C [Rg1]
barely interacted	CC(C)=CCC[C@](C)(O[C@@H]1O[C@H](CO[C@@H]2O[C@H](CO)[C@@H](O)[C@H](O)[C@H]2O)[C@@H](O)[C@H](O)[C@H]1O)[C@H]1CC[C@]2(C)[C@@H]1[C@H](O)C[C@@H]1[C@@]3(C)CC[C@H](O[C@@H]4O[C@H](CO)[C@@H](O)[C@H](O)[C@H]4O[C@@H]4O[C@H](CO)[C@@H](O)[C@H](O)[C@H]4O)C(C)(C)[C@@H]3CC[C@]12C [Rb1]

Molecule	direct binding response to 14-3-3 ζ (BLI)
CC(C)=CCC[C@](C)(O)[C@H]1CC[C@]2(C)[C@@H]1[C@H](O)C[C@@H]1[C@@]3(C)CC[C@H](O)C(C)(C)[C@@H]3[C@@H](O[C@@H]3O[C@H](CO)[C@@H](O)[C@H](O)[C@H]3O)C[C@]12C [Rh1]	barely interacted
CC(C)=CCC[C@](C)(O[C@@H]1O[C@H](CO)[C@@H](O)[C@H](O)[C@H]1O)[C@H]1CC[C@]2(C)[C@@H]1[C@H](O)C[C@@H]1[C@@]3(C)CC[C@H](O)C(C)(C)[C@@H]3CC[C@]12C [CK, ginsenoside compound K]	significant affinity
CC(C)=CCC[C@](C)(O)[C@H]1CC[C@]2(C)[C@@H]1[C@H](O)C[C@@H]1[C@@]3(C)CC[C@H](O[C@@H]4O[C@H](CO)[C@@H](O)[C@H](O)[C@H]4O)C(C)(C)[C@@H]3CC[C@]12C [Rh2]	significant affinity

Biological target: T2, 14-3-3 ζ protein (human), P63104
Assay: crystal structure
Conditions: remark: other sources report otherwise

stoichiometry N	Molecule
2	B1
